Measured values taken from patent US20150313928A1, “NEW APPLICATION OF CATALPOL” (SUZHOU YOUSEEN NEW PHARMACY DEVELOPMENT CO., LTD., priority 2012, published 2015).

Experiments:
Assay type in all cases: in vivo, Kunming mice
[1] = system: mice in the hyperthyroidism model group; test: Measurement of the oxygen consumption of the mice; details: for Decrease in oxygen content: measured two days prior to the last medication, 21% minus residual oxygen
Method: (§1) The successfully modeled mice are randomized into 5 groups (10 mice per group), that is, the hyperthyroidism model group, the catalpol low dosage group, the catalpol medium group, the catalpol high dosage group, and the methimazole group, plus the blank group (10 mice).
(§2) The catalpol low dosage group is administered 30mg/kg catalpol, the catalpol medium dosage group 60 mg/kg, the catalpol high group 90 mg/kg and the methimazole group 7.5 mg/kg methimazole, all by gastric infusion, while the blank group and the hyperthyroidism group are administered equal amount of distilled water, once per day, for 20 consecutive days. With the exception of the blank group, each mouse in each group continues to be administered 350 ug/kg levothyroxine sodium by means of subcutaneous injection each day.
Oxygen consumption is measured two days prior to the last medication. The specific method is: take a model CY-3 digital oxygen meter and install therein an oxygen electrode. Connect, perform zero adjustment, and repeat until the instrument is stable for use. Take a 500 ml bottle, fix its outward connecting pipe with a rubber cover, seal with Vaseline. The rubber cover is connected via a tee, and a shift in the tee is selectable for connection or disconnection with outer space. A mouse is placed inside the bottle, and the mouth of the bottle is instantly covered with a wood plug to shut off air from the inner flask. The filtering flask is horizontally placed on the experiment table, and timing of 20 minutes After 20 minute, 10 ml air from the bottle was taken out by a injector and rapidly injected into a connector of the CY-3 type digital oxygen analyzer with the oxygen analyzer indicating oxygen content of the pumped in air. The data, when stable, is recorded as the residual oxygen value, then the oxygen consumption (20 min, 10 ml)=21%—residual oxygen value (%). (21% oxygen in air).

[2] = system: mice in the hyperthyroidism model group; test: Measurement of the level of thyroid hormone of serum (radioimmunoassay); details: for FT3 / FT4 / T3 / T4: serum, 20 days
Method: as §1, §2
A mouse is suspended of food without suspension of water for 12 hours subsequent to the last medication, and blood is taken from its eye ball, put in centrifugation for 15 minutes at 3500 r/min, serum is pumped out for measurement of T3, T4, FT3, and FT4 by means of radioimmunoassay. For detailed operations, see the instruction manual.

[3] = system: mice in the hyperthyroidism model group; test: Measurement of heart rate of the mice (electrocardiogram)
Method: The successfully modeled mice are randomized into 5 groups (10 mice per group), that is, the hyperthyroidism model group, the catalpol low dosage group, the catalpol medium group, the catalpol high dosage group, and the methimazole group, plus the blank group (10 mice). The catalpol low dosage group is administered 30mg/kg catalpol, the catalpol medium dosage group 60 mg/kg, the catalpol high group 90 mg/kg and the methimazole group 7.5 mg/kg methimazole, all by gastric infusion, while the blank group and the hyperthyroidism group are administered equal amount of distilled water, once per day, for 20 consecutive days. With the exception of the blank group, each mouse in each group continues to be administered 350 ug/kg levothyroxine sodium by means of subcutaneous injection each day. All the mice are suspended of food without suspension of water for 12 hours one day prior to the last medication and heart rate is measured 3 hours later. Heart rate (HR) is calculated via the electrocardiogram, statistics is then conducted, and differences are compared.

[4] = system: mice in the hyperthyroidism model group; test: Observation of appearance and behavior of the mice; details: in words, as compared with the model group; daily observation
Method: The successfully modeled mice are randomized into 5 groups (10 mice per group), that is, the hyperthyroidism model group, the catalpol low dosage group, the catalpol medium group, the catalpol high dosage group, and the methimazole group, plus the blank group (10 mice). The catalpol low dosage group is administered 30mg/kg catalpol, the catalpol medium dosage group 60 mg/kg, the catalpol high group 90 mg/kg and the methimazole group 7.5 mg/kg methimazole, all by gastric infusion, while the blank group and the hyperthyroidism group are administered equal amount of distilled water, once per day, for 20 consecutive days. With the exception of the blank group, each mouse in each group continues to be administered 350 ug/kg levothyroxine sodium by means of subcutaneous injection each day. Animals were observed and recorded daily for their general status, including mental status, color and hair change, appearance and behavior. In addition, every two days, record is taken of their food intake.

[5] = system: mice in the hyperthyroidism model group; test: Measurement of heart indexes of the mice; set-up: HWI / LVWI: unit not given here; details: for HWI: heart weight index = HW/BW; for HWI / LVWI: 20 days; for LVWI: left ventricular weight index = LVW/BW
Method: as §1, §2
A mouse is sacrificed its heart instantly taken out for measurement of its heart weight (HW) and (left ventricular weight (LVW). Heart weight index (HWI=HW/BW) and left ventricular weight index (LVWI=LVW/BW) is calculated at conclusion the experiment.

[6] = system: mice in the hyperthyroidism model group; test: Measurement of mice weight change; details: for BW2 − BW1: body weight difference; for BW2 − BW1 / BW2: 20 days; for BW2: post-treatment body weight, levothyroxine sodium 350 ug/kg s.c. daily; for BW1: pre-treatment body weight
Method: as §1, §2
A mouse is suspended of food without suspension of water for 12 hours starting at 8 o'clock one day prior to the first medication, and all the mice are taken of their body weight (BW) the next day, that is, the pre-treatment body weight (BW1); the mouse is suspended of food without suspension of water for 12 hours starting at 8 o'clock of the day of the last medication, its body weight (BW) is taken the next day, that is, the post-treatment body weight (BW2); the difference of the pre-treatment body weight and the post-treatment body weight is calculated to compare the change of the body weight of the mice among each group.

[7] = catalpol 90 mg/kg gastric infusion once per day
[8] = catalpol 30 mg/kg gastric infusion once per day
[9] = catalpol 60 mg/kg gastric infusion once per day

OC[C@H]1O[C@@H](O[C@@H]2OC=C[C@H]3[C@H](O)[C@@H]4O[C@]4(CO)[C@@H]23)[C@H](O)[C@@H](O)[C@@H]1O [Catalpol]
Decrease in oxygen content ([1]; catalpol 30.0 mg/kg gastric infusion once per day): 8.88 %, 20 min | Decrease in oxygen content ([1]; catalpol 60.0 mg/kg gastric infusion once per day): 9.03 %, 20 min | Decrease in oxygen content [1, 7]: 8.81 %, 20 min | oxygen consumption ([1]; in words, compared with the model group, catalpol low (30 mg/kg) and high (90 mg/kg) dosage groups, methimazole 7.5 mg/kg): significantly decreased oxygen consumption | T3 level in the serum ([2]; in words, compared with the model group, catalpol 30, 60, 90 mg/kg groups, methimazole 7.5 mg/kg, P<0.05): decreased T3 level in the serum to some extent | FT3 level in the serum ([2]; in words, compared with the model group, catalpol low P<0.01, medium, high and methimazole P<0.05): decreased FT3 level in the serum to some extent | FT4 level in the serum ([2]; in words, compared with the model group, only catalpol low dosage significant (P<0.05)): decreased FT4 level in the serum to some extent | T4 level in the serum ([2]; in words, compared with the model group, only methimazole difference significant (P<0.05)): decreased T4 level in the serum to some extent | FT3 [2, 8]: 7.49 ng/mL | FT4 [2, 8]: 22.87 ng/mL | T3 [2, 8]: 3.84 ng/mL | T4 [2, 8]: 181.02 ng/mL | FT3 [2, 9]: 8.22 ng/mL | FT4 [2, 9]: 23.77 ng/mL | T3 [2, 9]: 3.52 ng/mL | T4 [2, 9]: 179.90 ng/mL | FT3 [2, 7]: 7.56 ng/mL | FT4 [2, 7]: 24.02 ng/mL | T3 [2, 7]: 3.50 ng/mL | T4 [2, 7]: 178.50 ng/mL | Heart rate ([3]; catalpol 30 mg/kg gastric infusion once per day, 20 days, levothyroxine sodium 350 ug/kg s.c. daily): 507.56 times/min | Heart rate ([3]; catalpol 60 mg/kg gastric infusion once per day, 20 days, levothyroxine sodium 350 ug/kg s.c. daily): 538.75 times/min | Heart rate ([3]; catalpol 90 mg/kg gastric infusion once per day, 20 days, levothyroxine sodium 350 ug/kg s.c. daily): 529.63 times/min | Heart rate ([3]; in words, compared with the model group, catalpol 30, 60, 90 mg/kg groups, methimazole 7.5 mg/kg): decreased heart rate to some extent | appearance and behavior of the mice [4]: quieter and have reduced symptoms of dysphoria, excitability, and drier and darker hair | HWI [5, 8]: 5.912 | HWI [5, 9]: 5.650 | HWI [5, 7]: 5.58 | heart weight index ([5]; in words, compared with the model group, catalpol medium and high dosage and methimazole significant): decreased heart weight index to some extent | left ventricular index ([5]; in words, compared with the model group, catalpol medium and high dosage significant (P<0.01)): decreased left ventricular index to some extent | LVWI [5, 8]: 1.786 | LVWI [5, 9]: 1.625 | LVWI [5, 7]: 1.582 | BW2 − BW1 [6, 8]: 9.00 g | BW2 − BW1 [6, 9]: 10.10 g | BW2 − BW1 [6, 7]: 10.15 g | body weight increase ([6]; in words, compared with the model group, catalpol groups, methimazole 7.5 mg/kg): more body weight increase to some extent | BW2 [6, 8]: 36.40 g | BW2 [6, 9]: 37.80 g | BW2 [6, 7]: 37.75 g | BW1 ([6]; catalpol 30 mg/kg group): 27.40 g | BW1 ([6]; catalpol 60 mg/kg group): 27.70 g | BW1 ([6]; catalpol 90 mg/kg group): 27.60 g
